Data taken from ChEMBL document CHEMBL5550090, “Synthesis and biological evaluation of 1H-pyrrolo[3,2-g]isoquinolines” (Bioorg Med Chem, 2024).

Columns and labels:
[1] = molecular target: T1, Serine/threonine-protein kinase haspin (Homo sapiens, UniProt Q8TF76); assay: Inhibition of recombinant human Haspin kinase domain (470 to 798 residues) expressed in bacteria using histone H3 (1 to 21) peptide as substrate incubated for 30 mins in presence of ATP by ADP-Glo kinase assay
T1 sequence (Q8TF76 whole entry): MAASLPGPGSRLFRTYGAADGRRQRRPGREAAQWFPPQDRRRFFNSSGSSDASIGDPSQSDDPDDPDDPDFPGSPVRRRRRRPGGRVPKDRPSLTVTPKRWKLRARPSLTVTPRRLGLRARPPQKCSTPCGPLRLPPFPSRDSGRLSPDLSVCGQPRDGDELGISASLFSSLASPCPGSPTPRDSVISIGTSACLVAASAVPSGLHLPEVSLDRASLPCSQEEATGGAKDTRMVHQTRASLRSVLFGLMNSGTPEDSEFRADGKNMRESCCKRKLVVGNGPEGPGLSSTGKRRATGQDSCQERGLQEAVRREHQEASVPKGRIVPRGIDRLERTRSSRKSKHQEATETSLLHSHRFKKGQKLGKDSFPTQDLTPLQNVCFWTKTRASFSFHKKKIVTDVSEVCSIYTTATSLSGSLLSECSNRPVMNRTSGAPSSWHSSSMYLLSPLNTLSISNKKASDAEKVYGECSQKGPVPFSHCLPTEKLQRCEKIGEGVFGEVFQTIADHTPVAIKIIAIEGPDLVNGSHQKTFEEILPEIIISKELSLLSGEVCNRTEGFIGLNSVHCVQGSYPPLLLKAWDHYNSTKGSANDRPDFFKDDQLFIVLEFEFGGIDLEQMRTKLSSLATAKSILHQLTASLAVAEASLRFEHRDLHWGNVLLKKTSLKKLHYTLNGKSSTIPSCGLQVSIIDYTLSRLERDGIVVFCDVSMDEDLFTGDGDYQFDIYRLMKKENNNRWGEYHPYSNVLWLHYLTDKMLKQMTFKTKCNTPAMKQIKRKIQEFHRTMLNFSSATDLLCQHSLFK

[2] = molecular target: Dual specificity protein kinase CLK1 (Mus musculus) (UniProt P22518); assay: Inhibition of recombinant mouse CLK1 expressed in bacteria assessed as enzyme residual activity using GRSRSRSRSRSR as substrate at 10 uM incubated for 30 mins in presence of ATP by ADP-Glo kinase assay
[3] = molecular target: Dual specificity protein kinase CLK1 (Mus musculus) (UniProt P22518); assay: Inhibition of recombinant mouse CLK1 expressed in bacteria assessed as enzyme residual activity using GRSRSRSRSRSR as substrate at 1 uM incubated for 30 mins in presence of ATP by ADP-Glo kinase assay
[4] = molecular target: Dual specificity tyrosine-phosphorylation-regulated kinase 1A (Rattus norvegicus) (UniProt Q63470); assay: Inhibition of recombinant rat DYRK1A kinase domain (1 to 499 residues) expressed in bacteria assessed as enzyme residual activity using KKISGRLSPIMTEQ as substrate at 10 uM incubated for 30 mins in presence of ATP by ADP-Glo kinase assay
[5] = molecular target: Dual specificity tyrosine-phosphorylation-regulated kinase 1A (Rattus norvegicus) (UniProt Q63470); assay: Inhibition of recombinant rat DYRK1A kinase domain (1 to 499 residues) expressed in bacteria assessed as enzyme residual activity using KKISGRLSPIMTEQ as substrate at 1 uM incubated for 30 mins in presence of ATP by ADP-Glo kinase assay
[6] = molecular target: Dual specificity tyrosine-phosphorylation-regulated kinase 1A (Rattus norvegicus, UniProt Q63470); assay: Inhibition of recombinant rat DYRK1A kinase domain (1 to 499 residues) expressed in bacteria using KKISGRLSPIMTEQ as substrate incubated for 30 mins in presence of ATP by ADP-Glo kinase assay
[7] = molecular target: T2, CDK9/cyclin T1 (Homo sapiens) (UniProt O60563+P50750); assay: Inhibition of human recombinant CDK9/cyclin T expressed in baculovirus-infected Sf9 cells assessed as enzyme residual activity using YSPTSPSYSPTSPSYSPTSPSKKKK as substrate at 10 uM incubated for 30 mins in presence of ATP by ADP-Glo kinase assay
[8] = molecular target: T2, CDK9/cyclin T1 (Homo sapiens); assay: Inhibition of human recombinant CDK9/cyclin T expressed in baculovirus-infected Sf9 cells assessed as enzyme residual activity using YSPTSPSYSPTSPSYSPTSPSKKKK as substrate at 1 uM incubated for 30 mins in presence of ATP by ADP-Glo kinase assay
[9] = molecular target: Glycogen synthase kinase-3 beta (Homo sapiens) (UniProt P49841); assay: Inhibition of human recombinant GSK-3 beta expressed in baculovirus-infected Sf9 cells assessed as enzyme residual activity using YRRAAVPPSPSLSRHSSPHQSpEDEEE as substrate at 10 uM incubated for 30 mins in presence of ATP by ADP-Glo kinase assay
[10] = molecular target: Glycogen synthase kinase-3 beta (Homo sapiens) (UniProt P49841); assay: Inhibition of human recombinant GSK-3 beta expressed in baculovirus-infected Sf9 cells assessed as enzyme residual activity using YRRAAVPPSPSLSRHSSPHQSpEDEEE as substrate at 1 uM incubated for 30 mins in presence of ATP by ADP-Glo kinase assay
[11] = molecular target: Casein kinase I isoform epsilon (Homo sapiens) (UniProt P49674); assay: Inhibition of human recombinant CK1 epsilon expressed in baculovirus-infected Sf9 cells assessed as enzyme residual activity using RRKHAAIGSpAYSITA as substrate at 10 uM incubated for 30 mins in presence of ATP by ADP-Glo kinase assay
[12] = molecular target: Casein kinase I isoform epsilon (Homo sapiens) (UniProt P49674); assay: Inhibition of human recombinant CK1 epsilon expressed in baculovirus-infected Sf9 cells assessed as enzyme residual activity using RRKHAAIGSpAYSITA as substrate at 1 uM incubated for 30 mins in presence of ATP by ADP-Glo kinase assay
[13] = molecular target: T3, Cyclin-dependent kinase 5/CDK5 activator 1 (Homo sapiens) (UniProt Q00535+Q15078); assay: Inhibition of human recombinant CDK5/p25 expressed in bacteria assessed as enzyme residual activity using histone H1 as substrate at 10 uM incubated for 30 mins in presence of ATP by ADP-Glo kinase assay
[14] = molecular target: T4, Serine/threonine-protein kinase pim-1 (Homo sapiens, UniProt P11309); assay: Inhibition of human recombinant PIM-1 expressed in bacteria assessed as enzyme residual activity using histone H1 as substrate at 10 uM incubated for 30 mins in presence of ATP by ADP-Glo kinase assay
Target sequence in this assay (P11309 whole entry, looked up): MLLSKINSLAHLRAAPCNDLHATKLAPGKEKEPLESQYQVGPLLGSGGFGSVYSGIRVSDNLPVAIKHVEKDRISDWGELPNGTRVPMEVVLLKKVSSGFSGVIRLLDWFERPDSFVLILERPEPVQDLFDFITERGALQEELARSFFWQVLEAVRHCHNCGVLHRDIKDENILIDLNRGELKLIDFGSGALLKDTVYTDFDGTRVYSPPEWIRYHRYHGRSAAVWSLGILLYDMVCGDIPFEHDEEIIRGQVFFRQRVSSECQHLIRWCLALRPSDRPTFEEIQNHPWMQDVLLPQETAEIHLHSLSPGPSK

[15] = molecular target: T4, Serine/threonine-protein kinase pim-1; assay: Inhibition of human recombinant PIM-1 expressed in bacteria assessed as enzyme residual activity using histone H1 as substrate at 1 uM incubated for 30 mins in presence of ATP by ADP-Glo kinase assay
Target sequence in this assay (P11309 whole entry, looked up): as above

[16] = molecular target: T4, Serine/threonine-protein kinase pim-1; assay: Inhibition of human recombinant PIM-1 expressed in bacteria using histone H1 as substrate incubated for 30 mins in presence of ATP by ADP-Glo kinase assay
Target sequence in this assay (P11309 whole entry): as the sequence (P11309 whole entry, looked up) above

[17] = system: TERT-RPE1; assay: cells; settings: Homo sapiens, RPE-1, 48 h
Description: Cytotoxicity against human TERT-RPE1 cells assessed as reduction in cell viability incubated for 48 hrs by MTS assay

[18] = system: HBL-100; assay: cells; settings: Homo sapiens, HBL-100, 48 h
Description: Antiproliferative activity against human HBL-100 cells assessed as reduction in cell viability incubated for 48 hrs by MTS assay

[19] = system: HCT-116; assay: cells; settings: Homo sapiens, HCT-116, 48 h
Description: Antiproliferative activity against human HCT-116 cells assessed as reduction in cell viability incubated for 48 hrs by MTS assay

[20] = system: SH-SY5Y; assay: cells; settings: Homo sapiens, 48 h
Description: Antiproliferative activity against human SH-SY5Y cells assessed as reduction in cell viability incubated for 48 hrs by MTS assay

[21] = system: U2OS; assay: cells; settings: Homo sapiens, 48 h
Description: Antiproliferative activity against human U2OS cells assessed as reduction in cell viability incubated for 48 hrs by MTS assay

[22] = molecular target: Dual specificity protein kinase CLK1 (Mus musculus, UniProt P22518); assay: Inhibition of recombinant mouse CLK1 expressed in bacteria using GRSRSRSRSRSR as substrate incubated for 30 mins in presence of ATP by ADP-Glo kinase assay
[23] = molecular target: T3, Cyclin-dependent kinase 5/CDK5 activator 1 (Homo sapiens); assay: Inhibition of human recombinant CDK5/p25 expressed in bacteria assessed as enzyme residual activity using histone H1 as substrate at 1 uM incubated for 30 mins in presence of ATP by ADP-Glo kinase assay
[24] = Selectivity index, ratio of IC50 for recombinant mouse CLK1 expressed in bacteria to IC50 for recombinant human Haspin kinase domain (470 to 798 residues) expressed in bacteria
[25] = molecular target: CDK9/cyclin T1 (Homo sapiens, UniProt P50750); assay: Inhibition of human recombinant CDK9/cyclin T expressed in baculovirus-infected Sf9 cells using YSPTSPSYSPTSPSYSPTSPSKKKK as substrate incubated for 30 mins in presence of ATP by ADP-Glo kinase assay
[26] = species: Homo sapiens; assay: Selectivity index, ratio of IC50 for human recombinant CDK9/cyclin T expressed in baculovirus-infected Sf9 cells to IC50 for recombinant human Haspin kinase domain (470 to 798 residues) expressed in bacteria

T3 sequence (Q00535 whole entry): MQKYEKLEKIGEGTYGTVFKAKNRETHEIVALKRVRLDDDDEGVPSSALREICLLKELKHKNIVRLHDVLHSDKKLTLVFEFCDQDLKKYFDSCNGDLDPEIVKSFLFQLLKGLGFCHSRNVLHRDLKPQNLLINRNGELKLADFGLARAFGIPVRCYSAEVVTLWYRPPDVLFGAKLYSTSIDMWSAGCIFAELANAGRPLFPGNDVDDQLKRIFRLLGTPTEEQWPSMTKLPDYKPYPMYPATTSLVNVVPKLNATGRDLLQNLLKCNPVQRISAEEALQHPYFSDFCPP
T3 sequence (Q15078 99-307 partner limits assumed): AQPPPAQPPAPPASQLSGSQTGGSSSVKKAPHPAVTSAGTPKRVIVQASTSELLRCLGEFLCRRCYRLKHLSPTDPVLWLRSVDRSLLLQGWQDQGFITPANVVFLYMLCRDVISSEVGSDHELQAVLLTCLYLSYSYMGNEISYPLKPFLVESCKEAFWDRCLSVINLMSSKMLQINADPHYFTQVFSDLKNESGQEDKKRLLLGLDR
Sequence of Dual specificity protein kinase CLK1 (P22518 whole entry): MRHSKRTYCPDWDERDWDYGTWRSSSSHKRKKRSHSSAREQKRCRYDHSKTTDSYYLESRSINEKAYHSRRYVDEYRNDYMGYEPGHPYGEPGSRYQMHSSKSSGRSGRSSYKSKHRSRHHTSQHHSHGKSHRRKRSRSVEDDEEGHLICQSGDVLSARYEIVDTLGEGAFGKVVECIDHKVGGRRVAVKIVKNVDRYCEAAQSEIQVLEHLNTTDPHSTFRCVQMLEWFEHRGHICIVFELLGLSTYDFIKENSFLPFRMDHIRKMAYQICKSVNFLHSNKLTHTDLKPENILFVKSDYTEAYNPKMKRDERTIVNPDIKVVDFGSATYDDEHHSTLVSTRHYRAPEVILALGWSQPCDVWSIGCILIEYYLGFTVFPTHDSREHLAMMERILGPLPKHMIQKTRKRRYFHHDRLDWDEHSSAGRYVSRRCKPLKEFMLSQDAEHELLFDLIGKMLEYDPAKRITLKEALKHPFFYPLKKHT
Sequence of Dual specificity protein kinase CLK1 (Mus musculus) (P22518 whole entry, looked up, the tested form may be a part): as the sequence (P22518 whole entry) above
Sequence of Glycogen synthase kinase-3 beta (Homo sapiens) (P49841 whole entry, looked up, canonical isoform): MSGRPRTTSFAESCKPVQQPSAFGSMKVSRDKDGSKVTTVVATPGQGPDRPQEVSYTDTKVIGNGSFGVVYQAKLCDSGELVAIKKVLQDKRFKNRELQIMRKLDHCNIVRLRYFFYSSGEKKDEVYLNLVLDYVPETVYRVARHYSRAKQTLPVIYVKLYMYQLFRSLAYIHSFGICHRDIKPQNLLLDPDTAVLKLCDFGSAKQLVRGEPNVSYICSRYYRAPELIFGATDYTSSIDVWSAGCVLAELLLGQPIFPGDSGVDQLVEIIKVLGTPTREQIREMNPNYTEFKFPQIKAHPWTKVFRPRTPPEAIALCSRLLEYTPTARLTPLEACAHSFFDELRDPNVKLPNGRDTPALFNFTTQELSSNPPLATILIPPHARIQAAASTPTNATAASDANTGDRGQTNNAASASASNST
Sequence of Casein kinase I isoform epsilon (Homo sapiens) (P49674 whole entry, looked up, canonical isoform): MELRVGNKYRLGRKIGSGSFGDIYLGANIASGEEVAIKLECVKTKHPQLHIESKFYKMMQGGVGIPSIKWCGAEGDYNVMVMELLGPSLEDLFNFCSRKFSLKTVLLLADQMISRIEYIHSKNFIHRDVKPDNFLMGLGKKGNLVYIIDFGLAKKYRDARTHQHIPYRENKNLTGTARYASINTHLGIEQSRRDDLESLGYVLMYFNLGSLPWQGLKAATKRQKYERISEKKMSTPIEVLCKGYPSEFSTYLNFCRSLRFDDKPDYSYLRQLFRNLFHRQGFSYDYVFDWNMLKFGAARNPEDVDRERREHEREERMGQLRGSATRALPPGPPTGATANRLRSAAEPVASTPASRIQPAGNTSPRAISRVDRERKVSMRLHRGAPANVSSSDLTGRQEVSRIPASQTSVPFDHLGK
Sequence of CDK9/cyclin T1 (O60563 whole entry, the tested form may be a part): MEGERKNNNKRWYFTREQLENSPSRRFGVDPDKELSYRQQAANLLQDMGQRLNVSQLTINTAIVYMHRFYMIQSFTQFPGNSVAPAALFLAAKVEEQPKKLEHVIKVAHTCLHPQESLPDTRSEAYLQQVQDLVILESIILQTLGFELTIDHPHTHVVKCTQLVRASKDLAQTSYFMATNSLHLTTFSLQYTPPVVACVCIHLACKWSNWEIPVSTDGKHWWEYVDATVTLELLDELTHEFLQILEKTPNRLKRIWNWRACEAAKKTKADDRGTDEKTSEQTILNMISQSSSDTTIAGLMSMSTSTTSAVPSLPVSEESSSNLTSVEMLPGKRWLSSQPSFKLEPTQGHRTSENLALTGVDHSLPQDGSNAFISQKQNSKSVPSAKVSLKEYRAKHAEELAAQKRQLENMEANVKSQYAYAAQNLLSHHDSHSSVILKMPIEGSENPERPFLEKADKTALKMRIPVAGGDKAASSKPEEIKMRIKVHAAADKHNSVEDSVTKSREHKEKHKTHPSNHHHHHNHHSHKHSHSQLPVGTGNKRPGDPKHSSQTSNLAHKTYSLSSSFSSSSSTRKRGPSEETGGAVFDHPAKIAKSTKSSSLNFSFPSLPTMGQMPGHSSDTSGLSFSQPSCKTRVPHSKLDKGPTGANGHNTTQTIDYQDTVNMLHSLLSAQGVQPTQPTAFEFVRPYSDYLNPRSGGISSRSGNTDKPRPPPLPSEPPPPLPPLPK
Sequence of CDK9/cyclin T1 (P50750 whole entry, the tested form may be a part): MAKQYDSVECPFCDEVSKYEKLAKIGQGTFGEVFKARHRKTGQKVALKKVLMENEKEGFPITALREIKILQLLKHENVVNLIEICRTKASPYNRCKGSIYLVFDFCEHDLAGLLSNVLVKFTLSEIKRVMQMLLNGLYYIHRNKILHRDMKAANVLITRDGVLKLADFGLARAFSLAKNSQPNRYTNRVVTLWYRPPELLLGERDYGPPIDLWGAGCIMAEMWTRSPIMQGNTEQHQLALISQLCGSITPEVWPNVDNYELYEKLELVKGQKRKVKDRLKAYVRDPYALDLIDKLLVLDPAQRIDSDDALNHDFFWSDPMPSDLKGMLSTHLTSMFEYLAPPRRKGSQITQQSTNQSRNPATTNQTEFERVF

| SMILES | IC50 [1] [nM] | Activity [2] [%] | Activity [3] [%] | Activity [4] [%] | Activity [5] [%] | IC50 [6] [nM] | Activity [7] [%] | Activity [8] [%] | Activity [9] [%] | Activity [10] [%] | Activity [11] [%] | Activity [12] [%] | Activity [13] [%] | Activity [14] [%] | Activity [15] [%] | IC50 [16] [nM] | IC50 [22] [nM] | Activity [23] [%] | Ratio IC50 [24] | IC50 [25] [nM] | other results |
| --- | --- | --- | --- | --- | --- | --- | --- | --- | --- | --- | --- | --- | --- | --- | --- | --- | --- | --- | --- | --- | --- |
| Ic1c[nH]c2cc3cnccc3cc12 | 114 | 27 | 69 | 16 | 50 | 564 | 35 | 62 | 74 | 77 | 27 | 69 | 100 | 23 | 50 | 675 | – | – | – | – | EC50 [17]: > 50000 nM; EC50 [18]: > 50000 nM; EC50 [19]: > 50000 nM; EC50 [20]: > 50000 nM; EC50 [21]: > 50000 nM |
| CC(=O)c1c[nH]c2cc3cnccc3cc12 | 157 | 10 | 21 | 0 | 25 | 860 | 20 | 34 | 27 | 69 | 62 | 98 | 13 | 27 | 80 | – | 265 | 31 | 1.7 | – | – |
| ON=Cc1c[nH]c2cc3cnccc3cc12 | 130 | – | 15 | 1 | 9 | 290 | 2 | 13 | 27 | 80 | 46 | 89 | 32 | 11 | 43 | – | 139 | 51 | 1.1 | 222 | – |
| Brc1c[nH]c2cc3cnccc3cc12 | 150 | 32 | 72 | 11 | 36 | 916 | 27 | 39 | 62 | 89 | 77 | 100 | 48 | 24 | 48 | 804 | – | 100 | – | 999 | EC50 [17]: > 50000 nM; EC50 [18]: > 50000 nM; EC50 [19]: > 50000 nM; EC50 [20]: > 50000 nM; EC50 [21]: > 50000 nM |
| Nc1nccc(-c2c[nH]c3cc4cnccc4cc23)n1 | 122 | 5 | 16 | 0 | 25 | 560 | 16 | 56 | 35 | 76 | 10 | 46 | 21 | 4 | 20 | 225 | 205 | 79 | 1.7 | – | – |
| O=Cc1c[nH]c2cc3cnccc3cc12 | 158 | 26 | 53 | 7 | 21 | 495 | 7 | 7 | 23 | 55 | 34 | 80 | 57 | 33 | 64 | – | 182 | 84 | – | 151 | Ratio IC50 [26]: 0.96 |
| N#Cc1c[nH]c2cc3cnccc3cc12 | 75 | 0 | 19 | 5 | 38 | 182 | 6 | 34 | 26 | 59 | 47 | 92 | 34 | 95 | 100 | – | 360 | 69 | – | 178 | Ratio IC50 [26]: 2.4 |
